Reference: the supplement of paper PMC10307832

What was measured:
Experiment in all cases: relative viability (nuclei count vs DMSO), 5 days (fraction); higher = more cells survive
Ispinesib + Decitabine = compound: Cc1ccc(C(=O)N(CCCN)[C@@H](c2nc3cc(Cl)ccc3c(=O)n2Cc2ccccc2)C(C)C)cc1 [Ispinesib] + Nc1ncn([C@H]2C[C@H](O)[C@@H](CO)O2)c(=O)n1 [Decitabine] (partner 2 µM)
Procedure, shortened: (§1)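 Dosing by pin tool came one day after lung cancer cell lines were seeded in 1536-well plates, using either one drug or a fixed anchor-drug dose plus five library-drug doses (not always all listed) in √10 steps. After 5 days, nuclei were counted on 4× images. Relative viability is treated-well nuclei count divided by vehicle-well nuclei count, and values are medians of duplicate plates.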

Linsitinib + Navitoclax = compound: C[C@]1(O)C[C@@H](c2nc(-c3ccc4ccc(-c5ccccc5)nc4c3)c3c(N)nccn32)C1 [Linsitinib] + CC1(C)CCC(c2ccc(Cl)cc2)=C(CN2CCN(c3ccc(C(=O)NS(=O)(=O)c4ccc(N[C@H](CCN5CCOCC5)CSc5ccccc5)c(S(=O)(=O)C(F)(F)F)c4)cc3)CC2)C1 [Navitoclax] (partner 0.5 µM)
Procedure, shortened: as §1

Ispinesib + Tozasertib = compound: Cc1ccc(C(=O)N(CCCN)[C@@H](c2nc3cc(Cl)ccc3c(=O)n2Cc2ccccc2)C(C)C)cc1 [Ispinesib] + Cc1cc(Nc2cc(N3CCN(C)CC3)nc(Sc3ccc(NC(=O)C4CC4)cc3)n2)n[nH]1 [Tozasertib] (partner 0.1 µM)
Procedure, shortened: as §1

Ispinesib + OSI-027 = compound: Cc1ccc(C(=O)N(CCCN)[C@@H](c2nc3cc(Cl)ccc3c(=O)n2Cc2ccccc2)C(C)C)cc1 [Ispinesib] + COc1cccc2cc(-c3nc([C@H]4CC[C@H](C(=O)O)CC4)n4ncnc(N)c34)[nH]c12 [OSI-027] (partner 0.5 µM)
Procedure, shortened: as §1

UMC-11 gave a relative viability (Ispinesib + Decitabine; first compound 0.001 µM) of 0.67, a relative viability (Ispinesib + Decitabine; first compound 0.003162 µM) of 0.904 and a relative viability (Ispinesib + Decitabine; first compound 0.01 µM) of 0.583. For the same cell line, the relative viability (Ispinesib + Decitabine; first compound 0.03162 µM) was 0.28, the relative viability (Ispinesib + Decitabine; first compound 0.1 µM) was 0.23 and the relative viability (Linsitinib + Navitoclax; first compound 0.01 µM) was 0.317. It also gave a relative viability (Linsitinib + Navitoclax; first compound 0.03162 µM) of 0.301, a relative viability (Linsitinib + Navitoclax; first compound 0.1 µM) of 0.315 and a relative viability (Linsitinib + Navitoclax; first compound 1 µM) of 0.302. It also gave a relative viability (Ispinesib + Tozasertib; first compound 0.001 µM) of 0.201, a relative viability (Ispinesib + Tozasertib; first compound 0.003162 µM) of 0.201 and a relative viability (Ispinesib + Tozasertib; first compound 0.01 µM) of 0.212. The relative viability (Ispinesib + Tozasertib; first compound 0.03162 µM) was 0.189, the relative viability (Ispinesib + Tozasertib; first compound 0.1 µM) was 0.205 and the relative viability (Ispinesib + OSI-027; first compound 0.001 µM) was 0.484. The relative viability (Ispinesib + OSI-027; first compound 0.003162 µM) was 0.429, the relative viability (Ispinesib + OSI-027; first compound 0.01 µM) was 0.445 and the relative viability (Ispinesib + OSI-027; first compound 0.03162 µM) was 0.219. For the same cell line, the relative viability (Ispinesib + OSI-027; first compound 0.1 µM) was 0.239.
